Mutagenic call data for 2 molecules are collected here from PubChem BioAssay AID1259407 (Chemical Carcinogenesis Research Information System (CCRIS), 2018).

Structures are written as SMILES. Activity calls are given as the source filed them. How the calls were made is not given here.

The test system of this data set is CCRIS mutagenicity, Ames/micronucleus/aberration tests. In words: CCRIS mutagenicity studies.
The mark [1] stands for this setting: Test System: AMES SALMONELLA TYPHIMURIUM, Strain/Indicator: TA100, Metabolic Activation: NONE, Method: PREINCUBATION

In the case of `[N-]=[N+]=[N-]`, the mutagenic call (Test System: AMES SALMONELLA TYPHIMURIUM, Strain/Indicator: TA97, Metabolic Activation: NONE, Method: STANDARD PLATE) was “inactive; negative”; the mutagenic call (Test System: AMES SALMONELLA TYPHIMURIUM, Strain/Indicator: TA97, Metabolic Activation: RAT, LIVER, S-9, AROCLOR 1254, Method: STANDARD PLATE) is “inactive; negative”; the mutagenic call (Test System: AMES SALMONELLA TYPHIMURIUM, Strain/Indicator: TA98, Metabolic Activation: HAMSTER, LIVER, S-9, AROCLOR 1254 (10%), Method: PREINCUBATION) is “inactive; negative”; the mutagenic call (Test System: AMES SALMONELLA TYPHIMURIUM, Strain/Indicator: TA98, Metabolic Activation: NONE, Method: PREINCUBATION) is “inactive; negative”; the mutagenic call (Test System: AMES SALMONELLA TYPHIMURIUM, Strain/Indicator: TA98, Metabolic Activation: NONE, Method: SPIRAL ASSAY) was “inactive; negative”; the mutagenic call (Test System: AMES SALMONELLA TYPHIMURIUM, Strain/Indicator: TA98, Metabolic Activation: NONE, Method: STANDARD PLATE) was “inactive; negative”. For the same molecule, the mutagenic call was “active; positive” (Test System: AMES SALMONELLA TYPHIMURIUM, Strain/Indicator: TA98, Metabolic Activation: RAT, LIVER, S-9, ACRYLAMIDE, Method: STANDARD PLATE); “inactive; negative” (Test System: AMES SALMONELLA TYPHIMURIUM, Strain/Indicator: TA98, Metabolic Activation: RAT, LIVER, S-9, AROCLOR 1254 (10%), Method: PREINCUBATION); “inactive; negative” (Test System: AMES SALMONELLA TYPHIMURIUM, Strain/Indicator: TA98, Metabolic Activation: RAT, LIVER, S-9, AROCLOR 1254, Method: SPIRAL ASSAY); “inactive; negative” (Test System: AMES SALMONELLA TYPHIMURIUM, Strain/Indicator: TA98, Metabolic Activation: RAT, LIVER, S-9, AROCLOR 1254, Method: STANDARD PLATE); “active; positive” (Test System: AMES SALMONELLA TYPHIMURIUM, Strain/Indicator: TA100, Metabolic Activation: HAMSTER, LIVER, S-9, AROCLOR 1254 (10%), Method: PREINCUBATION); “active; positive” under setting [1]. The mutagenic call runs as follows: (Test System: AMES SALMONELLA TYPHIMURIUM, Strain/Indicator: TA100, Metabolic Activation: NONE, Method: SPIRAL ASSAY) “active; positive”; (Test System: AMES SALMONELLA TYPHIMURIUM, Strain/Indicator: TA100, Metabolic Activation: RAT, LIVER, S-9, ACRYLAMIDE, Method: STANDARD PLATE) “active; positive”; (Test System: AMES SALMONELLA TYPHIMURIUM, Strain/Indicator: TA100, Metabolic Activation: RAT, LIVER, S-9, AROCLOR 1254 (10%), Method: PREINCUBATION) “active; positive”; (Test System: AMES SALMONELLA TYPHIMURIUM, Strain/Indicator: TA100, Metabolic Activation: RAT, LIVER, S-9, AROCLOR 1254, Method: SPIRAL ASSAY) “active; positive”; (Test System: AMES SALMONELLA TYPHIMURIUM, Strain/Indicator: TA100, Metabolic Activation: RAT, LIVER, S-9, PCB, Method: PREINCUBATION) “active; positive”; (Test System: AMES SALMONELLA TYPHIMURIUM, Strain/Indicator: TA1530, Metabolic Activation: NONE, Method: STANDARD PLATE) “active; positive”. In addition, the mutagenic call (Test System: AMES SALMONELLA TYPHIMURIUM, Strain/Indicator: TA1535, Metabolic Activation: HAMSTER, LIVER, S-9, AROCLOR 1254 (10%), Method: PREINCUBATION) was “active; positive”; the mutagenic call (Test System: AMES SALMONELLA TYPHIMURIUM, Strain/Indicator: TA1535, Metabolic Activation: NONE, Method: PREINCUBATION) was “active; positive”; the mutagenic call (Test System: AMES SALMONELLA TYPHIMURIUM, Strain/Indicator: TA1535, Metabolic Activation: NONE, Method: SPIRAL ASSAY) is “active; positive”; the mutagenic call (Test System: AMES SALMONELLA TYPHIMURIUM, Strain/Indicator: TA1535, Metabolic Activation: NONE, Method: STANDARD PLATE) is “active; positive”; the mutagenic call (Test System: AMES SALMONELLA TYPHIMURIUM, Strain/Indicator: TA1535, Metabolic Activation: RAT, LIVER, S-9, AROCLOR 1254 (10%), Method: PREINCUBATION) was “active; positive”; the mutagenic call (Test System: AMES SALMONELLA TYPHIMURIUM, Strain/Indicator: TA1535, Metabolic Activation: RAT, LIVER, S-9, AROCLOR 1254, Method: SPIRAL ASSAY) is “active; positive”. Further, the mutagenic call (Test System: AMES SALMONELLA TYPHIMURIUM, Strain/Indicator: TA1535, Metabolic Activation: RAT, LIVER, S-9, AROCLOR 1254, Method: STANDARD PLATE) was “active; positive”; the mutagenic call (Test System: AMES SALMONELLA TYPHIMURIUM, Strain/Indicator: TA1537, Metabolic Activation: HAMSTER, LIVER, S-9, AROCLOR 1254 (10%), Method: PREINCUBATION) was “inactive; negative”; the mutagenic call (Test System: AMES SALMONELLA TYPHIMURIUM, Strain/Indicator: TA1537, Metabolic Activation: NONE, Method: PREINCUBATION) was “inactive; negative”; the mutagenic call (Test System: AMES SALMONELLA TYPHIMURIUM, Strain/Indicator: TA1537, Metabolic Activation: NONE, Method: STANDARD PLATE) was “inactive; negative”; the mutagenic call (Test System: AMES SALMONELLA TYPHIMURIUM, Strain/Indicator: TA1537, Metabolic Activation: RAT, LIVER, S-9, AROCLOR 1254 (10%), Method: PREINCUBATION) was “inactive; negative”; the mutagenic call (Test System: AMES SALMONELLA TYPHIMURIUM, Strain/Indicator: TA1537, Metabolic Activation: RAT, LIVER, S-9, AROCLOR 1254, Method: STANDARD PLATE) is “inactive; negative”. Also, the mutagenic call is, setting by setting: (Test System: AMES SALMONELLA TYPHIMURIUM, Strain/Indicator: TA1538, Metabolic Activation: HAMSTER, LIVER, S-9, AROCLOR 1254 (10%), Method: PREINCUBATION) “inactive; negative”; (Test System: AMES SALMONELLA TYPHIMURIUM, Strain/Indicator: TA1538, Metabolic Activation: NONE, Method: PREINCUBATION) “inactive; negative”; (Test System: AMES SALMONELLA TYPHIMURIUM, Strain/Indicator: TA1538, Metabolic Activation: RAT, LIVER, S-9, AROCLOR 1254 (10%), Method: PREINCUBATION) “inactive; negative”; (Test System: Ames Salmonella typhimurium, Strain/Indicator: TA1975P, Metabolic Activation: None, Method: Preincubation) “active; positive (at higher doses)”; (Test System: E. COLI, Strain/Indicator: AB2500, Metabolic Activation: NONE, Method: STANDARD PLATE) “inactive; negative”; (Test System: E. COLI, Strain/Indicator: WP2 UVRA, Metabolic Activation: HAMSTER, LIVER, S-9, AROCLOR 1254, Method: STANDARD PLATE) “inactive; negative”. Besides, the mutagenic call reads like this: (Test System: E. COLI, Strain/Indicator: WP2 UVRA, Metabolic Activation: HAMSTER, LIVER, S-9, Method: STANDARD PLATE) “inactive; negative”; (Test System: E. COLI, Strain/Indicator: WP2 UVRA, Metabolic Activation: MOUSE, LIVER, S-9, AROCLOR 1254, Method: STANDARD PLATE) “inactive; negative”; (Test System: E. COLI, Strain/Indicator: WP2 UVRA, Metabolic Activation: MOUSE, LIVER, S-9, Method: STANDARD PLATE) “inactive; negative”; (Test System: E. COLI, Strain/Indicator: WP2 UVRA, Metabolic Activation: NONE, Method: STANDARD PLATE) “inactive; negative”; (Test System: E. COLI, Strain/Indicator: WP2 UVRA, Metabolic Activation: RAT, LIVER, S-9, AROCLOR 1254, Method: STANDARD PLATE) “inactive; negative”; (Test System: E. COLI, Strain/Indicator: WP2 UVRA, Metabolic Activation: RAT, LIVER, S-9, Method: STANDARD PLATE) “inactive; negative”. The mutagenic call (Test System: MOUSE LYMPHOMA, Strain/Indicator: L5178Y (TK+/TK-), Metabolic Activation: NONE, Method: SUSPENSION/PLATE) is “active; positive”.

As for `C=C(Cl)C#N`, the mutagenic call was “inactive; negative” under setting [1] and “inactive; negative” (Test System: AMES SALMONELLA TYPHIMURIUM, Strain/Indicator: TA100, Metabolic Activation: RAT, LIVER, S-9, AROCLOR 1254, Method: PREINCUBATION).
